Results published in patent US8063096B2, “Spirocyclic 3-phenyl-3substituted-4-ketolactams and-lactones” (Bayer Cropscience AG, priority 2001, dated 2011).

Legend:
Type in all cases: in vivo
Setaria [1] = assay: Pre-emergence test, Setaria; conditions: pre-emergence/greenhouse; 250 g of ai/ha; after three weeks
Description: (§1) [table] To produce a suitable preparation of active compound, 1 part by weight of active compound is mixed with the stated amount of solvent, the stated amount of emulsifier is added and the concentrate is diluted with water to the desired concentration. Seeds of the test plants are sown in normal soil. After about 24 hours, the soil is sprayed with the preparation of active compound such that the particular amounts of active compound desired are applied per unit area. The concentration of the spray liquor is chosen such that the particular amounts of active compound desired are applied in 1000 l of water/ha. After three weeks, the degree of damage to the plants is rated in % damage in comparison to the development of the untreated control. The figures denote: • 0%=no effect (like untreated control) • 100%=total destruction

Sinapis [2] = assay: Pre-emergence test, Sinapis; conditions: pre-emergence/greenhouse; 250 g of ai/ha; after three weeks
Description: as §1

Echinochloa [3] = assay: Post-emergence test, Echinochloa; conditions: post-emergence/greenhouse; 250 g of ai/ha; after three weeks
Description: as §1, with “Test plants” for “Seeds”, “a height of 5-15 cm” for “the test plants”, “are” for “are sown in normal soil. After about 24 hours, the soil is”, “(=like” for “(like”

Avena fatua [4] = assay: Post-emergence test, Avena fatua; conditions: post-emergence/greenhouse; 250 g of ai/ha; after three weeks
Description: as §1, with “Test plants” for “Seeds”, “a height of 5-15 cm” for “the test plants”, “are” for “are sown in normal soil. After about 24 hours, the soil is”, “(=like” for “(like”

Setaria [5] = assay: Post-emergence test, Setaria; conditions: post-emergence/greenhouse; 250 g of ai/ha; after three weeks
Description: as §1, with “Test plants” for “Seeds”, “a height of 5-15 cm” for “the test plants”, “are” for “are sown in normal soil. After about 24 hours, the soil is”, “(=like” for “(like”

Amaranthus [6] = assay: Post-emergence test, Amaranthus; conditions: post-emergence/greenhouse; 250 g of ai/ha; after three weeks
Description: as §1, with “Test plants” for “Seeds”, “a height of 5-15 cm” for “the test plants”, “are” for “are sown in normal soil. After about 24 hours, the soil is”, “(=like” for “(like”

Sinapis [7] = assay: Post-emergence test, Sinapis; conditions: post-emergence/greenhouse; 250 g of ai/ha; after three weeks
Description: as §1, with “Test plants” for “Seeds”, “a height of 5-15 cm” for “the test plants”, “are” for “are sown in normal soil. After about 24 hours, the soil is”, “(=like” for “(like”

Echinochloa [8] = assay: Pre-emergence test, Echinochloa; conditions: pre-emergence/greenhouse; 250 g of ai/ha; after three weeks
Description: as §1

Avena fatua [9] = assay: Pre-emergence test, Avena fatua; conditions: pre-emergence/greenhouse; 250 g of ai/ha; after three weeks
Description: as §1

Alopecurus [10] = assay: Post-emergence test, Alopecurus; conditions: post-emergence/greenhouse; 250 g of ai/ha; after three weeks
Description: as §1, with “Test plants” for “Seeds”, “a height of 5-15 cm” for “the test plants”, “are” for “are sown in normal soil. After about 24 hours, the soil is”, “(=like” for “(like”

Amaranthus [11] = assay: Pre-emergence test, Amaranthus; conditions: pre-emergence/greenhouse; 250 g of ai/ha; after three weeks
Description: as §1

Tetranychus urticae = assay: Tetranychus test (OP-resistant/dip treatment); conditions: 100 ppm active compound, bean plants dipped, OP-resistant
Description: [table] To produce a suitable preparation of active compound, 1 part by weight of active compound is mixed with the stated amounts of solvent and emulsifier, and the concentrate is diluted with emulsifier-containing water to the desired concentration. Bean plants (Phaseolus vulgaris) which are heavily infested by all stages of the greenhouse […] spider mite (Tetranychus urticae) are dipped into a preparation of active compound of the desired concentration. After the desired period of time, the activity in % is determined. 100% means that all spider mites have been killed; 0% means that none of the spider mites have been killed.

Alopecurus [12] = assay: Pre-emergence test, Alopecurus; conditions: pre-emergence/greenhouse; 250 g of ai/ha; after three weeks
Description: as §1

Spodoptera frugiperda = Spodoptera frugiperda test; conditions: 500 ppm active compound, cabbage leaves dipped
Description: (§2) [table] To produce a suitable preparation of active compound, 1 part by weight of active compound is mixed with the stated amounts of solvent and emulsifier, and the concentrate is diluted with emulsifier-containing water to the desired concentration. Cabbage leaves (Brassica oleracea) are treated by being dipped into the preparation of active compound of the desired concentration and are populated with caterpillars of the army worm (Spodoptera frugiperda) while leaves are still moist. After the desired period of time, the kill in % is determined. 100% means that all caterpillars have been killed; 0% means that none of the caterpillars have been killed.

Aphis gossypii [13] = assay: Aphis gossypii test (leaf dip, cotton); conditions: 500 ppm active compound, cotton leaves dipped
Description: as §2, with “Cotton” for “Cabbage”, “(Gossypium hirsutum) which are heavily infested by the cotton aphids (Aphis gossypii)” for “(Brassica oleracea)”, “concentration.” for “concentration and are populated with caterpillars of the army worm (Spodoptera frugiperda) while leaves are still moist.”, “aphids” for “caterpillars”

Myzus persicae [14] = assay: Test for persistency: Myzus persicae (root-systemic action); conditions: 4 ppm in soil, broad beans
Description: (§3) [table] To produce a suitable preparation of active compound, 1 part by weight of active compound is mixed with the stated amounts of solvent and emulsifier, and the concentrate is diluted with water to the desired concentration. The preparation of active compound is mixed intimately with the soil. The stated concentration refers to the amount of active compound per volume unit of soil (mg/l). The treated soil is filled into pots, and into these pots is planted pre-germinated broad beans. In this way, the active compound can be taken up from the soil into the roots of the plants and be transported into the leaves. After the stated number of days, peach aphids (Myzus persicae) are, in infection chambers, placed on the leaves. After the desired period of time, the kill in % is determined. 100% means that all aphids have been killed; 0% means that none of the aphids have been killed.

Plutella xylostella = assay: Plutella test; conditions: 500 ppm active compound, cabbage leaves dipped
Description: as §2, with “diamondback moth (Plutella xylostella)” for “army worm (Spodoptera frugiperda)”

Aphis gossypii [15] = assay: Test for persistency: Aphis gossypii (root-systemic action); conditions: 4 ppm in soil, cotton
Description: as §3, with “cotton at the cotyledon stage.” for “pre-germinated broad beans.”, “cotton” for “peach”, “(Aphis gossypii)” for “(Myzus persicae)”

Sugar beet [16] = assay: Post-emergence test, Sugar beet; conditions: post-emergence/greenhouse; 250 g of ai/ha; after three weeks; crop
Description: as §1, with “Test plants” for “Seeds”, “a height of 5-15 cm” for “the test plants”, “are” for “are sown in normal soil. After about 24 hours, the soil is”, “(=like” for “(like”

Sugar beet [17] = assay: Pre-emergence test, Sugar beet; conditions: pre-emergence/greenhouse; 250 g of ai/ha; after three weeks; crop
Description: as §1

Myzus persicae [18] = assay: Myzus test (leaf dip, cabbage); conditions: 500 ppm active compound, cabbage leaves dipped
Description: as §2, with “oleracea) which are heavily infested by peach aphids (Myzus persicae)” for “oleracea)”, “concentration.” for “concentration and are populated with caterpillars of the army worm (Spodoptera frugiperda) while leaves are still moist.”, “aphids” for “caterpillars”

Meloidogyne incognita = assay: Meloidogyne test (gall formation on lettuce roots); conditions: 20 ppm active compound, nematicidal action by gall formation
Description: [table] To produce a suitable preparation of active compound, 1 part by weight of active compound is mixed with the stated amounts of solvent and emulsifier, and the concentrate is diluted with water to the desired concentration. Vessels are filled with sand, solution of active compound, Meloidogyne incognita egg/larvae suspension and lettuce seeds. The lettuce seeds germinate and the plants develop. On the roots, galls develop. After the desired period of time, the nematicidal action is determined in % by the formation of galls. 100% means that no galls have been found; 0% means that the number of galls on the treated plants corresponds to that of the untreated control.

Phaedon cochleariae = assay: Phaedon larvae test; conditions: 500 ppm active compound, cabbage leaves dipped
Description: as §2, with “with larvae” for “with caterpillars”, “the mustard beetle (Phaedon cochleariae)” for “the army worm (Spodoptera frugiperda)”, “all beetle larvae” for “all caterpillars”, “the beetle larvae” for “the caterpillars”

## COC1CCC2(CC1)NC(=O)C(Cl)(c1c(C)cc(C)cc1Cl)C2=O (centres unmarked) [Ex. I-1-a-8]
Setaria [1]
  % damage, Setaria: 100%
Sinapis [2]
  % damage, Sinapis: 100%
Echinochloa [3]
  % damage, Echinochloa: 100%
Avena fatua [4]
  % damage, Avena fatua: 90%
Setaria [5]
  % damage, Setaria: 100%
Amaranthus [6]
  % damage, Amaranthus: 90%
Sinapis [7]
  % damage, Sinapis: 80%
Echinochloa [8]
  % damage, Echinochloa: 100%
Avena fatua [9]
  % damage, Avena fatua: 100%
Alopecurus [10]
  % damage, Alopecurus: 100%
Amaranthus [11]
  % damage, Amaranthus: 100%
Tetranychus urticae
  Kill rate in % after 7d: 100%
Alopecurus [12]
  % damage, Alopecurus: 100%
Spodoptera frugiperda
  Kill rate in % after 7d: 100%

## Cc1cc(Br)cc(C)c1C1(Cl)C(=O)NC2(CCOCC2)C1=O (centres unmarked) [Ex. I-1-c-3]
Aphis gossypii [13]
  Kill rate in % after 6d: 90%
Myzus persicae [14]; infection after 7 d
  Kill rate in % after 7d: 99%
Myzus persicae [14]; infection after 21 d
  Kill rate in % after 7d: 100%
Myzus persicae [14]; infection after 35 d
  Kill rate in % after 7d: 99%
Plutella xylostella
  Kill rate in % after 7d: 100%
Aphis gossypii [15]; infection after 7 d
  Kill rate in % after 7d: 100%
Aphis gossypii [15]; infection after 21 d
  Kill rate in % after 7d: 98^ %
Aphis gossypii [15]; infection after 35 d
  Kill rate in % after 7d: 98^ %

## CCc1cc(Cl)cc(CC)c1C1(Cl)C(=O)NC2(CCC(OC)CC2)C1=O (centres unmarked) [Ex. I-1-a-43]
Setaria [1]
  % damage, Setaria: 100%
Sugar beet [16]
  % damage, Sugar beet: 0%
Sugar beet [17]
  % damage, Sugar beet: 0%
Myzus persicae [18]
  Kill rate in % after 6d: 90%
Echinochloa [3]
  % damage, Echinochloa: 100%
Avena fatua [4]
  % damage, Avena fatua: 100%
Setaria [5]
  % damage, Setaria: 100%
Meloidogyne incognita
  Kill rate in % after 14d: 95%
Sinapis [7]
  % damage, Sinapis: 70%
Echinochloa [8]
  % damage, Echinochloa: 100%
Avena fatua [9]
  % damage, Avena fatua: 100%
Alopecurus [10]
  % damage, Alopecurus: 90%
Alopecurus [12]
  % damage, Alopecurus: 95%

## CCc1cc(Br)cc(C)c1C1(Cl)C(=O)NC2(CCC(OC)CC2)C1=O (centres unmarked) [Ex. I-1-a-26]
Sugar beet [16]
  % damage, Sugar beet: 0%
Phaedon cochleariae
  Kill rate in % after 7d: 100%
Echinochloa [3]
  % damage, Echinochloa: 100%
Avena fatua [4]
  % damage, Avena fatua: 100%
Setaria [5]
  % damage, Setaria: 100%
Sinapis [7]
  % damage, Sinapis: 80%
Alopecurus [10]
  % damage, Alopecurus: 100%

## COC1CCC2(CC1)NC(=O)C(Cl)(c1cc(C)ccc1Br)C2=O (centres unmarked) [Ex. I-1-a-28]
Phaedon cochleariae
  Kill rate in % after 7d: 100%
Aphis gossypii [13]
  Kill rate in % after 6d: 90%
Plutella xylostella
  Kill rate in % after 7d: 100%

## Cc1cc(Br)cc(Cl)c1C1(Cl)C(=O)NC2(CCOCC2)C1=O (centres unmarked) [Ex. I-1-c-2]
Myzus persicae [14]; infection after 7 d
  Kill rate in % after 7d: 100%
Myzus persicae [14]; infection after 21 d
  Kill rate in % after 7d: 100%
Myzus persicae [14]; infection after 35 d
  Kill rate in % after 7d: 99%
Plutella xylostella
  Kill rate in % after 7d: 100%
Aphis gossypii [15]; infection after 7 d
  Kill rate in % after 7d: 100%
Aphis gossypii [15]; infection after 21 d
  Kill rate in % after 7d: 98^ %
Aphis gossypii [15]; infection after 35 d
  Kill rate in % after 7d: 98^ %

## CCc1cc(Br)cc(C)c1C1(Cl)C(=O)NC2(CCCOC2)C1=O (centres unmarked) [Ex. I-1-b-12]
Setaria [1]
  % damage, Setaria: 100%
Sugar beet [16]
  % damage, Sugar beet: 0%
Sugar beet [17]
  % damage, Sugar beet: 0%
Echinochloa [3]
  % damage, Echinochloa: 100%
Avena fatua [4]
  % damage, Avena fatua: 100%
Setaria [5]
  % damage, Setaria: 100%
Echinochloa [8]
  % damage, Echinochloa: 100%
Avena fatua [9]
  % damage, Avena fatua: 100%
Alopecurus [10]
  % damage, Alopecurus: 90%
Alopecurus [12]
  % damage, Alopecurus: 95%

## COC1CCC2(CC1)NC(=O)C(Cl)(c1ccc(C)cc1Cl)C2=O (centres unmarked) [Ex. I-1-a-3]
Spodoptera frugiperda
  Kill rate in % after 7d: 100%

## COC1CCC2(CC1)NC(=O)C(Cl)(c1c(C)cc(Br)cc1Cl)C2=O (centres unmarked) [Ex. I-1-a-10]
Setaria [1]
  % damage, Setaria: 100%
Sinapis [2]
  % damage, Sinapis: 90%
Myzus persicae [18]
  Kill rate in % after 6d: 99%
Echinochloa [3]
  % damage, Echinochloa: 100%
Avena fatua [4]
  % damage, Avena fatua: 90%
Setaria [5]
  % damage, Setaria: 100%
Amaranthus [6]
  % damage, Amaranthus: 80%
Sinapis [7]
  % damage, Sinapis: 80%
Echinochloa [8]
  % damage, Echinochloa: 100%
Avena fatua [9]
  % damage, Avena fatua: 90%
Alopecurus [10]
  % damage, Alopecurus: 90%
Amaranthus [11]
  % damage, Amaranthus: 80%
Alopecurus [12]
  % damage, Alopecurus: 100%

## CCc1cc(Br)cc(Cl)c1C1(Cl)C(=O)NC2(CCC(OC)CC2)C1=O (centres unmarked) [Ex. I-1-a-44]
Setaria [1]
  % damage, Setaria: 100%
Sinapis [2]
  % damage, Sinapis: 80%
Sugar beet [16]
  % damage, Sugar beet: 0%
Sugar beet [17]
  % damage, Sugar beet: 0%
Myzus persicae [18]
  Kill rate in % after 6d: 98%
Echinochloa [3]
  % damage, Echinochloa: 100%
Avena fatua [4]
  % damage, Avena fatua: 100%
Setaria [5]
  % damage, Setaria: 100%
Sinapis [7]
  % damage, Sinapis: 70%
Echinochloa [8]
  % damage, Echinochloa: 100%
Avena fatua [9]
  % damage, Avena fatua: 100%
Alopecurus [10]
  % damage, Alopecurus: 95%
Alopecurus [12]
  % damage, Alopecurus: 100%
